Measurements published in ChEMBL document CHEMBL1201862, “PubChem BioAssay data set” (2004).
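1) Cells in 96-well plates. 2) Compound, 48 h, 5 concentrations. 3) Linear interpolation between surrounding doses. 4) Unreached endpoint = highest concentration. GI50 = concentration required for 50% inhibition of growth.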 Active and inactive are the calls of the source. No stated cut-off is given here; in the data, active = GI50 up to about 1.1 µM and inactive = higher.

Experiments:
Experiment in all cases: inhibition of tumour cell growth, NCI panel, 48 h
786-0 = tested on: 786-0
A498 = tested on: A498
A549 = tested on: A549
ACHN = tested on: ACHN
CCRF-CEM = tested on: CCRF-CEM
COLO 205 = tested on: COLO 205
DLD-1 = tested on: DLD-1
DMS-114 = tested on: DMS-114
DMS-273 = tested on: DMS-273
EKVX = tested on: EKVX
HCC 2998 = tested on: HCC 2998
HCT-116 = tested on: HCT-116
HCT-15 = tested on: HCT-15
HL-60 = tested on: HL-60
HOP-18 = tested on: HOP-18
HOP-92 = tested on: HOP-92
HT-29 = tested on: HT-29
IGROV-1 = tested on: IGROV-1
K562 = tested on: K562
KM-20L2 = tested on: KM-20L2
KM12 = tested on: KM12
LOX IMVI = tested on: LOX IMVI
LXFL 529 = tested on: LXFL 529
M14 = tested on: M14
M19-MEL = tested on: M19-MEL
MOLT-4 = tested on: MOLT-4
Malme-3M = tested on: Malme-3M
NCI-H23 = tested on: NCI-H23
NCI-H460 = tested on: NCI-H460
NCI-H522 = tested on: NCI-H522
OVCAR-3 = tested on: OVCAR-3
OVCAR-5 = tested on: OVCAR-5
OVCAR-8 = tested on: OVCAR-8
RXF 393 = tested on: RXF 393
RXF 631 = tested on: RXF 631
SF-268 = tested on: SF-268
SF-295 = tested on: SF-295
SF-539 = tested on: SF-539
SK-MEL-28 = tested on: SK-MEL-28
SK-MEL-2 = tested on: SK-MEL-2
SK-MEL-5 = tested on: SK-MEL-5
SK-OV-3 = tested on: SK-OV-3
SN12C = tested on: SN12C
SNB-19 = tested on: SNB-19
SNB-75 = tested on: SNB-75
SNB-78 = tested on: SNB-78
SR = tested on: SR
SW-620 = tested on: SW-620
TK-10 = tested on: TK-10
U-251 = tested on: U-251
UACC-257 = tested on: UACC-257
UACC-62 = tested on: UACC-62
UO-31 = tested on: UO-31
XF498 = tested on: XF498
CAKI-1 = tested on: CAKI-1
HOP-62 = tested on: HOP-62
OVCAR-4 = tested on: OVCAR-4
RPMI-8226 = tested on: RPMI-8226
NCI-H226 = tested on: NCI-H226

Measured: GI50

N#CC1(CCCCl)CCCCC1
inactive: 786-0 > 100 µM | A498 > 100 µM | A549 > 100 µM | ACHN > 100 µM | CCRF-CEM > 100 µM | COLO 205 > 100 µM | DLD-1 > 100 µM | DMS-114 > 100 µM | DMS-273 > 100 µM | EKVX > 100 µM | HCC 2998 > 100 µM | HCT-116 > 100 µM | HL-60 > 100 µM | HOP-18 72.9 µM | HOP-92 > 100 µM | HT-29 > 100 µM | IGROV-1 > 100 µM | K562 > 10 µM | KM-20L2 > 100 µM | KM12 > 100 µM | LOX IMVI > 100 µM | LXFL 529 > 100 µM | M14 > 100 µM | M19-MEL > 100 µM | MOLT-4 > 100 µM | Malme-3M > 100 µM | NCI-H23 > 100 µM | NCI-H460 > 100 µM | NCI-H522 > 100 µM | OVCAR-3 > 100 µM | OVCAR-5 > 100 µM | OVCAR-8 > 100 µM | RXF 393 > 100 µM | RXF 631 > 100 µM | SF-268 > 100 µM | SF-295 > 100 µM | SF-539 > 100 µM | SK-MEL-28 > 100 µM | SK-MEL-2 > 100 µM | SK-MEL-5 > 100 µM | SK-OV-3 > 100 µM | SN12C > 100 µM | SNB-19 > 100 µM | SNB-75 32.4 µM | SNB-78 > 100 µM | SR > 100 µM | SW-620 > 100 µM | TK-10 > 100 µM | U-251 > 100 µM | UACC-257 > 100 µM | UACC-62 > 100 µM | UO-31 > 100 µM | XF498 > 100 µM
> 100 µM: HCT-15

CCN(CC)c1ccc(/N=C2\C=C(Cl)C(=O)c3ncccc32)c(C)c1
inactive: 786-0 3.08 µM | A549 9.71 µM | ACHN 2.96 µM | CAKI-1 3.33 µM | CCRF-CEM 1.68 µM | COLO 205 4.2 µM | DLD-1 4.06 µM | DMS-114 2.67 µM | DMS-273 3.73 µM | EKVX 11.2 µM | HCT-116 3.24 µM | HL-60 1.86 µM | HOP-18 3.08 µM | HOP-62 5.37 µM | HOP-92 2.15 µM | HT-29 15.8 µM | IGROV-1 11.1 µM | K562 2.28 µM | KM-20L2 5.65 µM | LOX IMVI 5.15 µM | M14 2.9 µM | M19-MEL 4.68 µM | MOLT-4 2.88 µM | Malme-3M 2.88 µM | NCI-H23 3.24 µM | NCI-H460 6.56 µM | OVCAR-3 1.91 µM | OVCAR-4 5.27 µM | OVCAR-8 4.08 µM | RPMI-8226 3.37 µM | RXF 393 3.92 µM | RXF 631 13.5 µM | SF-295 15.6 µM | SF-539 12.4 µM | SK-MEL-28 8.2 µM | SK-MEL-2 7.74 µM | SK-MEL-5 3.18 µM | SK-OV-3 31.3 µM | SN12C 7.41 µM | SNB-19 21.3 µM | SNB-75 14.4 µM | SNB-78 13.1 µM | SW-620 4.05 µM | TK-10 4.37 µM | U-251 4.88 µM | UACC-257 2.48 µM | UACC-62 3.8 µM | UO-31 12.4 µM | XF498 5.78 µM
3.85 µM: HCT-15

O=C(O)C12C3CCCC1C2CC3 (centres undefined)
> 100 µM: HCT-15
inactive: 786-0 > 100 µM | A498 > 100 µM | A549 > 100 µM | ACHN > 100 µM | CAKI-1 > 100 µM | CCRF-CEM > 100 µM | COLO 205 > 100 µM | DLD-1 > 100 µM | DMS-114 > 100 µM | EKVX > 100 µM | HCT-116 > 100 µM | HL-60 > 100 µM | HOP-18 > 100 µM | HOP-62 > 100 µM | HOP-92 > 100 µM | HT-29 > 100 µM | IGROV-1 > 100 µM | K562 > 100 µM | KM-20L2 > 100 µM | KM12 > 100 µM | LOX IMVI > 100 µM | LXFL 529 > 100 µM | M14 > 100 µM | M19-MEL > 100 µM | MOLT-4 > 100 µM | Malme-3M > 100 µM | NCI-H226 > 100 µM | NCI-H23 > 100 µM | NCI-H460 > 100 µM | NCI-H522 > 100 µM | OVCAR-3 > 100 µM | OVCAR-5 > 100 µM | OVCAR-8 > 100 µM | RPMI-8226 > 100 µM | RXF 393 > 100 µM | RXF 631 > 100 µM | SF-268 > 100 µM | SF-295 > 100 µM | SF-539 > 100 µM | SK-MEL-28 > 100 µM | SK-MEL-2 > 100 µM | SK-MEL-5 > 100 µM | SK-OV-3 > 100 µM | SN12C > 100 µM | SNB-19 > 100 µM | SNB-75 > 100 µM | SNB-78 > 100 µM | SR > 100 µM | TK-10 > 100 µM | U-251 > 100 µM | UACC-257 > 100 µM | UACC-62 > 100 µM | UO-31 > 100 µM | XF498 > 100 µM
